Read-outs that look alike come from different tables or passages of the source.
What was measured:
[1] = system: human non small cell lung cancer cell line H460; assay: Antiproliferation (cytotoxicity) assay, 72 hrs under air, Alamar Blue; format: cell-based
[2] = system: BCRP, which over expressed the breast cancer resistance protein; assay: Efflux pump drug resistance, antiproliferation assay, BCRP over expressing line
Description: (§1) The compounds were screened for cytotoxicity using human non small cell lung cancer cell line H460. […]
(§2) Cellular drug resistance was determined using the antiproliferation assay described above.

[3] = In vivo pharmacokinetics, oral gavage; settings: CD-mice, oral gavage
Description: The data normalized to a 50 mg/kg dose are shown below (compounds were dosed at either 25 or 50 mg/kg).

[4] = system: DX5, which over expresses the MDR 1 efflux pump; assay: Efflux pump drug resistance, antiproliferation assay, MDR 1 over expressing line; format: cell-based; settings: MDR1, 72 h, air, 3 days; read-out: Air 3d DX5 prol. IC50
Description: as §1, §2

pcDNA = assay: Efflux pump drug resistance, antiproliferation assay, parent line; format: cell-based; settings: 72 h, air, 3 days; read-out: Air 3d pcDNA prol. IC50
Description: as §1, §2

[5] = system: Messa ovarian carcinoma cell line; assay: as above; format: cell-based; settings: Homo sapiens, MES-SA, 72 h, air, 3 days; read-out: Air 3d MESSA prol. IC50
Description: […] Cells were treated with test compounds at various concentrations under air for 72 hrs, and then cell viability and proliferation were assessed by Alamar Blue staining.
as §2

[6] = system: human non small cell lung cancer H-460; assay: Xenograft model, subcutaneous, tumor growth inhibition and body weight loss
Description: The first three models were produced by subcutaneous implantation of the appropriate number of cells into the flank of the animals. When tumor size was approximately 150 mm^3, animals were randomized into groups of 10 mice each for dosing. One arm was dosed with only vehicle and the results used for the efficacy calculations. […] TGI=(1−T/C) %. T/C ratio was calculated as T/C=(Tn−Ti)/(Cn−Ci), where Tn is tumor volume in treatment group on Day n, and Ti is the initial tumor volume in the treatment group. Cn is the tumor volume of the vehicle group on the last day of measurement. Ci is the initial tumor volume in the vehicle control group. Day n is the last measurement taken when all the animals in the vehicle group were not yet euthanized. Animals were euthanized when tumor volumes grew larger than 2000 mm^3.

[7] = Homo sapiens, NCI-H460, H460, inhibition of proliferation, 72 hrs under air, read-out: IC50

Row | SMILES | IC50 [1, 7] | also measured
1 | CC[C@@]1(O)C(=O)OCc2c1c(N)c1n(c2=O)Cc2c-1nc1ccccc1c2CNCC(C)(C)C [TH1814] | 0.015 µM | 
2 | C=CCO/N=C/c1c2c(nc3ccccc13)-c1c([N+](=O)[O-])c3c(c(=O)n1C2)COC(=O)[C@]3(O)CC [TH1771] | > 10 µM | 
3 | CC[C@@]1(O)C(=O)OCc2c1c(N)c1n(c2=O)Cc2c-1nc1ccccc1c2CC[Si](C)(C)C [TH1631] | 0.0074 µM | 
4 | CC[C@@]1(O)C(=O)OCc2c1c(N)c1n(c2=O)Cc2c-1nc1ccccc1c2/C=N/N1CCN(C)CC1 [TH1775] | 0.026 µM | 
5 | CC[C@@]1(O)C(=O)OCc2c1c([N+](=O)[O-])c1n(c2=O)Cc2c-1nc1ccccc1c2/C=C/C(=O)OC(C)(C)C [TH1786] | 21 µM | 
6 | CC[C@@]1(O)C(=O)OCc2c1c([N+](=O)[O-])c1n(c2=O)Cc2c-1nc1ccccc1c2/C=N/N(CCO)C(=O)C(C)C [TH1794] | 2.3 µM | 
7 | CC[C@@]1(O)C(=O)OCc2c1c([N+](=O)[O-])c1n(c2=O)Cc2c-1nc1ccccc1c2/C=N/N1CCOCOC1 [TH1812] | 2.8 µM | 
8 | CC[C@@]1(O)C(=O)OCc2c1c([N+](=O)[O-])c1n(c2=O)Cc2c-1nc1ccccc1c2/C=N/c1ccc(C(C)(C)C)cc1 [TH1804] | > 50 µM | 
9 | CC[C@@]1(O)C(=O)OCc2c1c([N+](=O)[O-])c1n(c2=O)Cc2c-1nc1ccccc1c2CC[Si](C)(C)C [TH1626] | > 1 µM | 
10 | CC[C@@]1(O)C(=O)OCc2c1c(N)c1n(c2=O)Cc2c-1nc1ccccc1c2CN [TH1769] | 0.33 µM | 
11 | CC[C@@]1(O)C(=O)OCc2c1c([N+](=O)[O-])c1n(c2=O)Cc2c-1nc1cccc([N+](=O)[O-])c1c2Br [TH1636] | 6.2 µM | 
12 | CC[C@@]1(O)C(=O)OCc2c1c([N+](=O)[O-])c1n(c2=O)Cc2c-1nc1ccccc1c2/C=N/N(CCO)C(=O)C(C)(C)C [TH1791] | 4 µM | 
13 | CC[C@@]1(O)C(=O)OCc2c1cc1n(c2=O)Cc2cc3ccccc3nc2-1 [Camptothecin, reference compound] |  | ratio BCRP over expressing line versus the parent cell line ([2]; ratio of IC50s, BCRP versus pcDNA): 1.6; half-life [3]: 1.98 h; Cmax ([3]; 5% DMSO, 5% Tween 80 suspension in water, normalized to a 50 mg/kg dose): 374 ng/mL; AUC ([3]; normalized to a 50 mg/kg dose): 58.1 µg·min/mL; IC50 ([1]; H460, inhibition of proliferation, 72 hrs under air, read-out: IC50): 0.014 µM
14 | CC[C@@]1(O)C(=O)OCc2c1c(N)c1n(c2=O)Cc2c-1nc1ccccc1c2CO [TH1599] | 0.0043 µM | 
15 | CC[C@@]1(O)C(=O)OCc2c1c([N+](=O)[O-])c1n(c2=O)Cc2c-1nc1cccc([N+](=O)[O-])c1c2/C=N/OCCN1CCCCC1 [TH1525] | > 1 µM | 
16 | CC[C@@]1(O)C(=O)OCc2c1c(N)c1n(c2=O)Cc2c-1nc1ccccc1c2/C=N/NCCO [TH1778] | 0.27 µM | 
17 | CC[C@@]1(O)C(=O)OCc2c1c(N)c1n(c2=O)Cc2c-1nc1ccccc1c2/C=N/N(CCO)C(=O)c1ccccc1 [TH1800] | 0.22 µM | 
18 | CC[C@@]1(O)C(=O)OCc2c1c(N)c1n(c2=O)Cc2c-1nc1ccccc1c2/C=N/N(CCO)C(C)=O [TH1783] | 0.46 µM | 
19 | CC[C@@]1(O)C(=O)OCc2c1c([N+](=O)[O-])c1n(c2=O)Cc2c-1nc1ccccc1c2/C=N/N(CCO)C(=O)c1ccccc1 [TH1797] | 40 µM | 
20 | CC[C@@]1(O)C(=O)OCc2c1c([N+](=O)[O-])c1n(c2=O)Cc2c-1nc1ccccc1c2/C=C/C(C)=O [TH1784] | 4.9 µM | 
21 | CC[C@@]1(O)C(=O)OCc2c1c([N+](=O)[O-])c1n(c2=O)Cc2c-1nc1ccccc1c2/C=N/OCCN(C)C [TH1522] | > 1 µM | 
22 | CC[C@@]1(O)C(=O)OCc2c1c(N)c1n(c2=O)Cc2c-1nc1ccccc1c2/C=N/N1CCOCOC1 [TH1816] | 0.023 µM | 
23 | CC[C@@]1(O)C(=O)OCc2c1c([N+](=O)[O-])c1n(c2=O)Cc2c-1nc1ccccc1c2/C=N/N(CCOS(C)(=O)=O)S(C)(=O)=O [TH1798] | 2.5 µM | 
24 | CC[C@@]1(O)C(=O)OCc2c1c(N)c1n(c2=O)Cc2c-1nc1ccccc1c2C(OC)OC [TH1785] | 0.039 µM | 
25 | CC[C@@]1(O)C(=O)OCc2c1c([N+](=O)[O-])c1n(c2=O)Cc2c-1nc1ccccc1c2C#N [TH1766] | > 1 µM | 
26 | CC[C@@]1(O)C(=O)OCc2c1c([N+](=O)[O-])c1n(c2=O)Cc2c-1nc1ccccc1c2CC(C)(C)C [TH1644] | 0.8 µM | 
27 | CC[C@@]1(O)C(=O)OCc2c1c([N+](=O)[O-])c1n(c2=O)Cc2c-1nc1cccc([N+](=O)[O-])c1c2/C=N/OCCN1CCOCC1 [TH1523] | 0.83 µM | 

Row | SMILES | IC50 [1, 7] | also measured
28 | CCOC(=O)/C=C/c1c2c(nc3ccccc13)-c1c(N)c3c(c(=O)n1C2)COC(=O)[C@]3(O)CC [TH1789] | 0.031 µM | 
29 | CC[C@@]1(O)C(=O)OCc2c1c([N+](=O)[O-])c1n(c2=O)Cc2c-1nc1ccccc1c2CO [TH1333] | > 1 µM | IC50 ([2]; 72 h, read-out: Air 3d BCRP prol. IC50 nM, air, 3 days): 7800 nM; 3d BCRP/pcDNA ([2]; ratio of IC50s, BCRP over expressing versus parent line, 3 days): 2; IC50 [4]: 34 µM; IC50 (pcDNA): 3.9 µM; IC50 [5]: 15 µM
30 | CC[C@@]1(O)C(=O)OCc2c1c(N)c1n(c2=O)Cc2c-1nc1ccccc1c2/C=N/c1ccc(C(C)(C)C)cc1 [TH1809] | 1.4 µM | 
31 | CC[C@@]1(O)C(=O)OCc2c1c(N)c1n(c2=O)Cc2c-1nc1ccccc1c2/C=N/N(CCO)C(=O)C(C)(C)C [TH1793] | 0.019 µM | 
32 | CC[C@@]1(O)C(=O)OCc2c1c(N)c1n(c2=O)Cc2c-1nc1ccccc1c2/C=N/N1CCOCC1 [TH1777] | 0.016 µM | 
33 | CC[C@@]1(O)C(=O)OCc2c1c(N)c1n(c2=O)Cc2c-1nc1ccccc1c2CC[Si](C)(C)O [TH1628] | 0.062 µM | 
34 | CC[C@@]1(O)C(=O)OCc2c1c([N+](=O)[O-])c1n(c2=O)Cc2c-1nc1ccccc1c2CO[N+](=O)[O-] [TH1598] |  | IC50 ([1]; Homo sapiens, NCI-H460, 72 h): 0.089 µM
35 | CC[C@@]1(O)C(=O)OCc2c1c([N+](=O)[O-])c1n(c2=O)Cc2c-1nc1ccccc1c2/C=N/OCC1CO1 (some centres unmarked) [TH1776] | 3.2 µM | 
36 | CC[C@@]1(O)C(=O)OCc2c1c([N+](=O)[O-])c1n(c2=O)Cc2c-1nc1ccccc1c2/C=N/OCCN1CCCCC1 [TH1524] | > 1 µM | 
37 | CC[C@@]1(O)C(=O)OCc2c1c([N+](=O)[O-])c1n(c2=O)Cc2c-1nc1ccccc1c2/C=C/N1CCN(C)CC1 [TH1770] | 9.1 µM | 
38 | CC[C@@]1(O)C(=O)OCc2c1c([N+](=O)[O-])c1n(c2=O)Cc2c-1nc1ccccc1c2CC[Si](C)(C)O [TH1627] | > 1 µM | 
39 | CCOC(=O)/C=C/c1c2c(nc3ccccc13)-c1c([N+](=O)[O-])c3c(c(=O)n1C2)COC(=O)[C@]3(O)CC [TH1781] | 28 µM | 
40 | CC[C@@]1(O)C(=O)OCc2c1c(N)c1n(c2=O)Cc2c-1nc1ccccc1c2CC(C)(C)C [TH1643] | 0.043 µM | 
41 | CC[C@@]1(O)C(=O)OCc2c1c([N+](=O)[O-])c1n(c2=O)Cc2c-1nc1ccccc1c2/C=N/NCCO [TH1768] | 6.6 µM | 
42 | CC[C@@]1(O)C(=O)OCc2c1c([N+](=O)[O-])c1n(c2=O)Cc2c-1nc1ccccc1c2/C=N/N(CCO)C(C)=O [TH1780] | 28 µM | 
43 | CC[C@@]1(O)C(=O)OCc2c1c([N+](=O)[O-])c1n(c2=O)Cc2c-1nc1ccccc1c2/C=N/c1c(F)c(F)c(O)c(F)c1F [TH1805] | 49 µM | 
44 | CCCc1c2c(nc3ccccc13)-c1c([N+](=O)[O-])c3c(c(=O)n1C2)COC(=O)[C@]3(O)CC [TH1650] | 0.685 µM | TGI (%) ([6]; H460, PO, QD × 5/wk, 2 weeks, 40 mg/Kg): 85%; Max. BWL (%) ([6]; mouse, in vivo, po, 40 mg/kg): 6.7%
45 | CCOC(=O)CCc1c2c(nc3ccccc13)-c1c(N)c3c(c(=O)n1C2)COC(=O)[C@]3(O)CC [TH1787] | 0.012 µM | 
46 | CC[C@@]1(O)C(=O)OCc2c1c(N)c1n(c2=O)Cc2c-1nc1ccccc1c2/C=N/N(CCO)C(=O)C(C)C [TH1796] | 0.012 µM | 
47 | CC[C@@]1(O)C(=O)OCc2c1c(N)c1n(c2=O)Cc2c-1nc1ccccc1c2/C=N/N(CCOS(C)(=O)=O)S(C)(=O)=O [TH1799] | 0.0081 µM | 
48 | CC[C@@]1(O)C(=O)OCc2c1c([N+](=O)[O-])c1n(c2=O)Cc2c-1nc1ccccc1c2/C=N/N1CCOCC1 [TH1767] | 6 µM | 
49 | CC[C@@]1(O)C(=O)OCc2c1c(N)c1n(c2=O)Cc2c-1nc1ccccc1c2/C=C/C(=O)OC(C)(C)C [TH1811] | 0.014 µM | 
50 | CC[C@@]1(O)C(=O)OCc2c1c([N+](=O)[O-])c1n(c2=O)Cc2c-1nc1ccccc1c2/C=N/c1ccccc1O [TH1803] | 3.6 µM | 
51 | CC[C@@]1(O)C(=O)OCc2c1c([N+](=O)[O-])c1n(c2=O)Cc2cc3c([N+](=O)[O-])cccc3nc2-1 [TH1385] | > 1 µM | 
52 | CC[C@@]1(O)C(=O)OCc2c1c(N)c1n(c2=O)Cc2c-1nc1ccccc1c2CCC(=O)OC(C)(C)C [TH1790] | 0.046 µM | 
53 | CC[C@@]1(O)C(=O)OCc2c1c(N)c1n(c2=O)Cc2c-1nc1ccccc1c2C#N [TH1801] | 0.023 µM | 
54 | CC[C@@]1(O)C(=O)OCc2c1c([N+](=O)[O-])c1n(c2=O)Cc2c-1nc1ccccc1c2C=O [TH1762, 7-formyl-14-nitro camptothecin] | 7.2 µM | 

— patent publication US8575188B2 (priority 2009, dated 2013)
